The results in this text go back to EP1243268A1, “MEDICINAL COMPOSITION” (Nippon Shinyaku Co., Ltd., priority 1999, dated 2001).

The subject of series [1] is mesangial cells. Put plainly: Effect on anti-Thy-1 antibody nephritis in rats (count of cells in the glomeruli). It is filed as in vivo. To be noted: rats with anti-Thy-1 antibody nephritis; suspension (1mg/1ml) orally, 1 ml/100g of body weight twice a day for 7 days; kidneys removed on day 8; number of cells per glomerulus, mean ± standard error; Control 104.3±3.3, intact animal 67.25; *: P<0.05, **: P<0.01 (Dunnett's test). The source says: Anti-Thy-1 antibody-induced nephritis is a model of glomerulonephritis constructed by utilizing the reaction between the Thy-1 antigen occurring as a membrane protein of mesangial cells and the antibody to the antigen. In this model, injuries to mesangial cells and lesions associated with mesangial cell proliferation are found. While a large majority of types of chronic glomerulonephritis in human are those of proliferative glomerulonephritis which show mesangial cell proliferation and increases in mesangial matrix as cardinal pathologic features, anti-Thy-1 antibody nephritis is regarded as a model of this human proliferative glomerulonephritis, particularly mesangial proliferative nephritis [Ishizaki et al., Acta. Pathol. Jpn., 36, 1191 (1986)].
Rats were used in groups of 7.
Preparation of the antibody was carried out in accordance with the method of Ishizaki et al. referred to above. Thus, an adjuvant suspension of rat thymocytes was prepared and subcutaneously administered to rabbits for immunization. After two booster doses, the blood was collected and the serum separated was subjected to inactivation and absorption to provide an antiserum (anti-Thy-1 antibody).
A predetermined amount of the antiserum was injected intravenously from the tail vein of rats to induce nephritis. Starting the following day after injection, a suspension (1mg/1ml) of the test drug was administered orally at a dosage of 1 ml/100g of body weight of rat twice a day for 7 days. On day 8 following the beginning of administration, the animals were sacrificed and the kidneys were removed. The kidney was fixed in Carnoy's fixative and, in the routine manner, paraffin sections were prepared and stained with hematoxyline stain for microscopy. For histopathological evaluation, the number of cells in the glomeruli (mainly mesangial cells) in each tissue preparation was counted under a light microscope. Statistical analysis was performed by Dunnett's test.

Series [2] relates to mice. Put plainly: Acute toxicity. It counts as in vivo. To be noted: suspension orally at 300 mg/kg, general condition observed for a week after administration. The procedure:
Each of the compounds in Preparation Examples 1, 5, 6, 33, 34, 39, and 48 was administered.

For the compound `Cc1ccc2c(c1)c(C(=O)N1CCN(c3ccccn3)CC1)c(-c1ccccc1)n2C.Cl` [Preparation Example 1, 1-(1,5-Dimethyl-2-phenylindol-3-ylcarbonyl)-4-(2-pyridyl)piperazine hydrochloride], the “Number of mesangial cells a)” value in series [1] is given as 90.3±2.2*. Further, the deaths result in series [2] is reported as “No deaths were observed”.

Take `Cn1c(-c2ccccc2)c(C(=O)N2CC[N+]([O-])(c3ccccn3)CC2)c2ccccc21` [Preparation Example 5, 1-(1-Methyl-2-phenylindol-3-ylcarbonyl)-4-(2-pyridyl)piperazine-4-oxide]: the deaths entry in series [2] is recorded as “No deaths were observed”.

For the compound `Cl.Cn1c(-c2ccccc2)c(C(=O)N2CCN(c3ccccn3)CC2)c2ccccc21` [Preparation Example 6, 1-(1-Methyl-2-phenylindol-3-ylcarbonyl)-4-(2-pyridyl)piperazine hydrochloride], the deaths result in series [2] is “No deaths were observed”.

With `Cc1ccc2c(c1)c(C(=O)N1CCN(c3cccnc3)CC1)c(-c1ccccc1)n2C.Cl.Cl` [Preparation Example 33, 1-(1,5-Dimethyl-2-phenylindol-3-ylcarbonyl)-4-(3-pyridyl)piperazine dihydrochloride], in series [1], the “Number of mesangial cells a)” value is 88.5±3.7**. Also, the deaths result in series [2] is given as “No deaths were observed”.

For `Cc1ccc2c(c1)c(C(=O)N1CCN(c3ccncc3)CC1)c(-c1ccccc1)n2C.Cl` [Preparation Example 34, 1-(1,5-Dimethyl-2-phenylindol-3-ylcarbonyl)-4-(4-pyridyl)piperazine hydrochloride], the “Number of mesangial cells a)” value in series [1] is 87.1±5.7**. For the same compound, the deaths result in series [2] is “No deaths were observed”.

Regarding `Cc1cc2c(C(=O)N3CCN(c4ccncc4)CC3)c(-c3ccccc3)n(C)c2cc1C.Cl` [Preparation Example 39, 1-(1,5,6-Trimethyl-2-phenylindol-3-ylcarbonyl)-4-(4-pyridyl)piperazine hydrochloride], the deaths entry in series [2] is “No deaths were observed”.

For `Cl.Cn1c(-c2ccccc2)c(C(=O)N2CCN(c3ccc([N+](=O)[O-])cn3)CC2)c2ccccc21` [Preparation Example 48, 1-(1-Methyl-2-phenylindol-3-ylcarbonyl)-4-(5-nitro-2-pyridyl)piperazine hydrochloride], the “Number of mesangial cells a)” value in series [1] was 89.2±3.1*. Also, the deaths entry in series [2] was “No deaths were observed”.
